Data on eleven molecules can be found in patent publication US20240425523A1, “Compounds for the Degradation of EGFR Kinase” (Beigene Switzerland GMBH, priority 2023, published 2024).

For assay [1], the target named is T1, EGFR-L858R/C797S (H1975-clone #8 cells) (Homo sapiens, UniProt P00533, C797S/L858R).
T1 construct: expressed in transfected cells; host or cells: H1975 (endogenous EGFR knocked out, clone #8)
As to the kind of experiment: Cell degradation of EGFR, HTRF assay, H1975-clone#8 (L858R/C797S) cells. In kind it is cell-based. As to conditions: 16 h treatment; for DC50: EGFR degradation; for Dmax: maximum percentage of degradation. Here is the method: The EGFR over-expressed cells then underwent knockout, in which the EGFR targeting sgRNA was designed to only target the endogenous EGFR copies and preserve the exogenous EGFR copies. Followed by the knockout, the edited H1975 cells were seeded in 96 well plates at the concentration of […], cultured for about 2 weeks to allow single clones formation. The formed clones were screened by DNA sequencing and whole exon sequencing analysis for the desired edition.
(§1) H1975-#8 and BaF3-L858R cells are treated with compounds diluted in 0.1% DMSO cell culture medium on day 2, incubate for 16 h, 37° C., 5% CO2. the final concentration of compounds in all assay is start with 10 uM, 5-fold dilution, total 8 doses were included.
(§2) After 16 h treatment, for H1975-#8 cells, add 100 ul HTRF 1× lysis buffer to each well; for BaF3-L858R cells, add 20 μl 4× lysis buffer to each well; seal the plate and incubate 1 hour at room temperature on a plate shaker; Once the cells are lysed, 16 μL of cell lysate are transferred to a PE 384-well HTRF detection plate; 4 μL of pre-mixed HTRF antibodies are added to each well; Cover the plate with a plate sealer, spin 1000 rpm for 1 min, Incubate overnight at room temperature; Read on BMG PheraStar with HTRF protocol (337 nm-665 nm-620 nm).
(§3) High control=Cell group with added DMSO and without compound, indicating microplate readings without EGFR degradation;
(§4) Dmax is the maximum percentage of inhibition (degradation).
(§5) The IC50 (DC50) value of a compound can be obtained by fitting the following equation
(§6) Y=Bottom+(TOP−Bottom)/(1+((IC50/X)^hillslope))
(§7) Wherein, X and Y are known values, and IC50, Hillslope, Top and Bottom are the parameters obtained by fitting with software. […] The experimental data were fitted by calculating and analyzing with Dotmatics data analysis software.

The target of assay [2] is T2, EGFR L858R (BaF3-L858R cells) (Homo sapiens, UniProt P00533, L858R).
T2 construct: host or cells: BaF3
T2 sequence (P00533 25-1210 L858R): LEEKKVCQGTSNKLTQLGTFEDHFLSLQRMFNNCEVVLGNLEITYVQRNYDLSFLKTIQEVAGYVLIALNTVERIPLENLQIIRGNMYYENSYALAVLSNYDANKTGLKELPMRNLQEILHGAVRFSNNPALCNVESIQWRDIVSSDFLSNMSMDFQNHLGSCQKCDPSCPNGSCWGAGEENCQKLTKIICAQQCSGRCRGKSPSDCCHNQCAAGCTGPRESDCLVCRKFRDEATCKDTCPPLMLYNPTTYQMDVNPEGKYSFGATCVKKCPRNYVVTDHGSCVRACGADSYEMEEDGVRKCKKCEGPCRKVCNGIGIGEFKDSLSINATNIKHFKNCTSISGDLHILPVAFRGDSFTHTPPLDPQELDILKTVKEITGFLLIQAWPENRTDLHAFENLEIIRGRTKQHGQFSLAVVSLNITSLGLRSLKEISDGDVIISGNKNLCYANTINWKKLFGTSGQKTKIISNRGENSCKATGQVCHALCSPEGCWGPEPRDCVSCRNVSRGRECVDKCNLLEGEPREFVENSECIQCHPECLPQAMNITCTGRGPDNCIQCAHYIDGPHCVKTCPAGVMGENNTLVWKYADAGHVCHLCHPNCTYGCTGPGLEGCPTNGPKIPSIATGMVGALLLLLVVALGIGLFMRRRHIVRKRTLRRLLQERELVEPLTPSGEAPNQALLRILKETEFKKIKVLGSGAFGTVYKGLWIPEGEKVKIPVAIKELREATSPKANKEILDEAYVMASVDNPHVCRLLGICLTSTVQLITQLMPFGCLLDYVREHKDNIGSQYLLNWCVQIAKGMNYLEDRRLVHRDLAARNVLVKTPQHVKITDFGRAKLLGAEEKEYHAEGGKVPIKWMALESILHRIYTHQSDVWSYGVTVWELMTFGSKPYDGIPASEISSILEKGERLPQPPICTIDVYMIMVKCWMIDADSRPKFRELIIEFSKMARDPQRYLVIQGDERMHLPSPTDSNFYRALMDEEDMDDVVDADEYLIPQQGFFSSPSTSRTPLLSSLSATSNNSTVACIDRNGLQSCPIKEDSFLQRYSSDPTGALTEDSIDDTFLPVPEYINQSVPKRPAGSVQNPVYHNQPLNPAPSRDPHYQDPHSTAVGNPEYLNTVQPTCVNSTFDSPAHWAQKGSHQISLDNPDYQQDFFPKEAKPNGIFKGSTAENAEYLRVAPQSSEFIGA
As to the kind of experiment: Cell degradation of EGFR, HTRF assay, BaF3-L858R cells. As to conditions: 16 h treatment; for DC50: EGFR degradation; for Dmax: maximum percentage of degradation. It is filed as cell-based. The protocol: BaF3-L858R (abbv. L858R) cell were purchased from Kangyuan Bochuang Biotechnology (Beijing) Co., Ltd.
as §1, §2, §3, §4, §5, §6, §7

T1 sequence (P00533 25-1210 C797S/L858R): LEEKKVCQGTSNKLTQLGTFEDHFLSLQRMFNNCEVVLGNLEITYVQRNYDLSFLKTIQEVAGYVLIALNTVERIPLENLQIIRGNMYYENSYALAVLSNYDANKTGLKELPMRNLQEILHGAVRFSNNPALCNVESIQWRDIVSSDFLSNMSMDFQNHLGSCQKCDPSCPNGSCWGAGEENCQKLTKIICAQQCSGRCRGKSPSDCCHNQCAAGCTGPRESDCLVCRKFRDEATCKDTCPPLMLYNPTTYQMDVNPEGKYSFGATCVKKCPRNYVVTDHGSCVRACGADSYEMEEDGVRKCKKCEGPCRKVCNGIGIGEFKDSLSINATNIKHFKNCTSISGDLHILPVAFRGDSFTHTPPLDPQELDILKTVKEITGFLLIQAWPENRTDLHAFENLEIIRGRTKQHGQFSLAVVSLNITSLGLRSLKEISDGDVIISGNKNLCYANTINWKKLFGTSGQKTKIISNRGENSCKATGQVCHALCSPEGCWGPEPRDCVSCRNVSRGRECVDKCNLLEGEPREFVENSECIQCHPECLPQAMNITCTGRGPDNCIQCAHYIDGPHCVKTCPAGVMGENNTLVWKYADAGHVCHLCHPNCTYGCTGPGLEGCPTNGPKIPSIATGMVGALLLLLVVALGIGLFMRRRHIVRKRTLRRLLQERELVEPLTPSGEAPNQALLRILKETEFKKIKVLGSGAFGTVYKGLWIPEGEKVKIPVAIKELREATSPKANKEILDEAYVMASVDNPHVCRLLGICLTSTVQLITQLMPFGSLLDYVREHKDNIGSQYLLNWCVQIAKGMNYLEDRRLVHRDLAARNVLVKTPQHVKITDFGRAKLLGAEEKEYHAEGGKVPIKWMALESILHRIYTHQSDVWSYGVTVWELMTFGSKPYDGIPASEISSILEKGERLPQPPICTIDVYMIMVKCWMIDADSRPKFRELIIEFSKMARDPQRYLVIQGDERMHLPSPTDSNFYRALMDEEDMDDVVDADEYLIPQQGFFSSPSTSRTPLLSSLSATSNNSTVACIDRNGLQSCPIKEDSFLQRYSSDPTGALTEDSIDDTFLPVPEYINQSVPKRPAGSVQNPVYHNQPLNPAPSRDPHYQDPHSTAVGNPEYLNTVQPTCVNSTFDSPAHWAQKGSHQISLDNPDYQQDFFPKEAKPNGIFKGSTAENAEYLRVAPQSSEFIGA

In the case of `Cc1cc2cc(n1)-c1cnn(C)c1OC[C@H]1CC[C@H](C1)CN1/C(=N/C2=O)Nc2ccc(N3CCN([C@@H]4CCN(c5cccc6c5C(C)(C)C(=O)N6C5CCC(=O)NC5=O)C[C@@H]4F)CC3)cc21` (stereo partly drawn) [Example 11, 3-(4-((3S,4R)-4-(4-((7^1R,7^3S,E)-1^1,2^6-dimethyl-3-oxo-5^2,5^3-dihydro-1^1H,5^1H-9-oxa-4-aza-5(2,1)-benzo[d]imidazola-2(2,4)-pyridina-1(4,5)-pyrazola-7(1,3)-cyclopentanacyclononaphane-5^6-yl)piperazin-1-yl)-3-fluoropiperidin-1-yl)-3,3-dimethyl-2-oxoindolin-1-yl)piperidine-2,6-dione], the results for the 50% degradation concentration (DC50) in assay [1] and in assay [2] were 3.75 nM and 0.834 nM, respectively. Moreover, the Dmax in assay [1] was 61.5%; in assay [2], 84.6%.

In the case of `Cc1cc2cc(n1)-c1cnn(C)c1OC[C@@H]1CC[C@@H](C1)CN1/C(=N/C2=O)Nc2ccc(N3CCN(C4CCN(c5ccc(C6CCC(=O)NC6=O)nc5C)CC4)CC3)cc21` (some centres unmarked) [Example 3, 3-(5-(4-(4-((7^1S,7^3R,E)-1^1,2^6-dimethyl-3-oxo-5^2,5^3-dihydro-1^1H,5^1H-9-oxa-4-aza-5(2,1)-benzo[d]imidazola-2(2,4)-pyridina-1(4,5)-pyrazola-7(1,3)-cyclopentanacyclononaphane-5^6-yl)piperazin-1-yl)piperidin-1-yl)-6-methylpyridin-2-yl)piperidine-2,6-dione], in assay [1], the DC50 stood at 16.4 nM and the Dmax was 44%. In assay [2], the half-maximal degradation concentration (DC50) was 20.1 nM and the Dmax worked out at 72.7%.

As to `COC[C@H]1CN(c2ccc3c(c2)N2C[C@@H]4CC[C@H](COc5c(c(C)nn5C)-c5cc(cc(C)n5)C(=O)/N=C/2N3)C4)CCN1C1CCN(c2c(C)cc(NC3CCC(=O)NC3=O)nc2C)CC1` (stereo partly drawn) [Example 159, 3-((5-(4-((R)-2-(methoxymethyl)-4-((7^1R,7^3S,E)-1^1,1^3,2^6-trimethyl-3-oxo-5^2,5^3-dihydro-1^1H,5^1H-9-oxa-4-aza-5(2,1)-benzo[d]imidazola-2(2,4)-pyridina-1(4,5)-pyrazola-7(1,3)-cyclopentanacyclononaphane-5^6-yl)piperazin-1-yl)piperidin-1-yl)-4,6-dimethylpyridin-2-yl)amino)piperidine-2,6-dione], the DC50 in assay [1] was 3.75 nM; in assay [2], 9.56 nM. Besides, the Dmax in assay [1] came to 81.3%; in assay [2], 77.5%.

Take `Cc1cc2cc(n1)-c1cnn(C)c1OC[C@H]1CC[C@H](C1)CN1/C(=N/C2=O)Nc2ccc(N3CCN(CC4CN(c5c(C)cc(C6CCC(=O)NC6=O)nc5C)C4)CC3)cc21` (some centres unmarked) [Example 8, 3-(5-(3-((4-((7^1R,7^3S,E)-1^1,2^6-dimethyl-3-oxo-5^2,5^3-dihydro-1^1H,5^1H-9-oxa-4-aza-5(2,1)-benzo[d]imidazola-2(2,4)-pyridina-1(4,5)-pyrazola-7(1,3)-cyclopentanacyclononaphane-5^6-yl)piperazin-1-yl)methyl)azetidin-1-yl)-4,6-dimethylpyridin-2-yl)piperidine-2,6-dione]: in assay [1], half-maximal degradation (DC50) was put at 3.18 nM and the Dmax came to 74.2%. Moreover, in assay [2], the DC50 was found to be 3.2 nM and the Dmax is 64%.

On to `CCc1nc(C2CCC(=O)NC2=O)ccc1N1CCC(N2CCN(c3ccc4c(c3)N3C[C@@H]5CC[C@H](COc6c(cnn6C)-c6cc(cc(C)n6)C(=O)/N=C/3N4)C5)CC2)CC1` (some centres unmarked) [Example 4, 3-(5-(4-(4-((7^1R,7^3S,E)-1^1,2^6-dimethyl-3-oxo-5^2,5^3-dihydro-1^1H,5^1H-9-oxa-4-aza-5(2,1)-benzo[d]imidazola-2(2,4)-pyridina-1(4,5)-pyrazola-7(1,3)-cyclopentanacyclononaphane-5^6-yl)piperazin-1-yl)piperidin-1-yl)-6-ethylpyridin-2-yl)piperidine-2,6-dione], for which, in assay [1], the DC50 came to 2.34 nM and the Dmax is 75.4%. Besides, in assay [2], it took 1.23 nM to reach half-maximal degradation (DC50) and the Dmax came out at 87.6%.

With `Cc1cc2cc(n1)-c1cnn(C)c1OC[C@H]1CC[C@H](C1)CN1/C(=N/C2=O)Nc2ccc(N3CCN(C4CCN(c5cc(F)c(C6CCC(=O)NC6=O)nc5C)CC4)CC3)cc21` (some centres unmarked) [Example 6, 3-(5-(4-(4-((7^1R,7^3S,E)-1^1,2^6-dimethyl-3-oxo-5^2,5^3-dihydro-1^1H,5^1H-9-oxa-4-aza-5(2,1)-benzo[d]imidazola-2(2,4)-pyridina-1(4,5)-pyrazola-7(1,3)-cyclopentanacyclononaphane-5^6-yl)piperazin-1-yl)piperidin-1-yl)-3-fluoro-6-methylpyridin-2-yl)piperidine-2,6-dione], in assay [1], half-maximal degradation (DC50) was put at 1.2 nM and the Dmax was 86.6%. Further, in assay [2], it took 3.1 nM to reach half-maximal degradation (DC50) and the Dmax was 101%.

On to `Cc1cc2cc(n1)-c1cnn(C)c1OC[C@H]1CC[C@H](C1)CN1/C(=N/C2=O)Nc2ccc(N3CCN(C4CCN(c5cc(F)c([C@H]6CCC(=O)NC6=O)c(F)c5)CC4)CC3)cc21` [Example 1, (R)-3-(4-(4-(4-((7^1R,7^3S,E)-1^1,2^6-dimethyl-3-oxo-5^2,5^3-dihydro-1^1H,5^1H-9-oxa-4-aza-5(2,1)-benzo[d]imidazola-2(2,4)-pyridina-1(4,5)-pyrazola-7(1,3)-cyclopentanacyclononaphane-5^6-yl)piperazin-1-yl)piperidin-1-yl)-2,6-difluorophenyl)piperidine-2,6-dione], for which, in assay [1], the DC50 was determined as 1.41 nM and the Dmax worked out at 79.2%. Further, in assay [2], the DC50 stood at 3.25 nM and the Dmax came out at 89.7%.

On to `COC[C@@H]1CN(c2ccc3c(c2)N2C[C@@H]4CC[C@H](COc5c(cnn5C)-c5cc(cc(C)n5)C(=O)/N=C/2N3)C4)CCN1C1CCN(c2cc(F)c([C@H]3CCC(=O)NC3=O)c(F)c2)CC1` [Example 9, (R)-3-(4-(4-((S)-4-((7^1R,7^3S,E)-1^1,2^6-dimethyl-3-oxo-5^2,5^3-dihydro-1^1H,5^1H-9-oxa-4-aza-5(2,1)-benzo[d]imidazola-2(2,4)-pyridina-1(4,5)-pyrazola-7(1,3)-cyclopentanacyclononaphane-5^6-yl)-2-(methoxymethyl)piperazin-1-yl)piperidin-1-yl)-2,6-difluorophenyl)piperidine-2,6-dione], for which, in assay [1], the DC50 came out at 4.28 nM and the Dmax came to 71.7%. Besides, in assay [2], the DC50 worked out at 6.11 nM and the Dmax stood at 86.6%.

For the molecule `Cc1cc2cc(n1)-c1cnn(C)c1OC[C@H]1CC[C@H](C1)CN1/C(=N/C2=O)Nc2ccc(N3CCN([C@H]4CCN(c5cc(F)c(C6CCC(=O)NC6=O)nc5C)C[C@H]4F)CC3)cc21` (stereo partly drawn) [Example 27, 3-(5-((3R,4S)-4-(4-((7^1R,7^3S,E)-1^1,2^6-dimethyl-3-oxo-5^2,5^3-dihydro-1^1H,5^1H-9-oxa-4-aza-5(2,1)-benzo[d]imidazola-2(2,4)-pyridina-1(4,5)-pyrazola-7(1,3)-cyclopentanacyclononaphane-5^6-yl)piperazin-1-yl)-3-fluoropiperidin-1-yl)-3-fluoro-6-methylpyridin-2-yl)piperidine-2,6-dione], the DC50 in assay [1] amounted to 3.19 nM; in assay [2], 1.75 nM. Further, the Dmax in assay [1] came out at 90.2%; in assay [2], 91.1%.

For the molecule `Cc1cc2cc(n1)-c1cnn(C)c1OC[C@H]1CC[C@H](C1)CN1/C(=N/C2=O)Nc2ccc(N3CCN([C@@H]4CCN(c5c(C)cc(C6CCC(=O)NC6=O)nc5C)C[C@@H]4F)CC3)cc21` (stereo partly drawn) [Example 13, 3-(5-((3S,4R)-4-(4-((7^1R,7^3S,E)-1^1,2^6-dimethyl-3-oxo-5^2,5^3-dihydro-1^1H,5^1H-9-oxa-4-aza-5(2,1)-benzo[d]imidazola-2(2,4)-pyridina-1(4,5)-pyrazola-7(1,3)-cyclopentanacyclononaphane-5^6-yl)piperazin-1-yl)-3-fluoropiperidin-1-yl)-4,6-dimethylpyridin-2-yl)piperidine-2,6-dione], in assay [1], the DC50 is 1.4 nM and the Dmax is 65.5%. In assay [2], the DC50 was 0.307 nM and the Dmax came to 91.5%.

For the molecule `Cc1cc2cc(n1)-c1cnn(CCO)c1OC[C@H]1CCC(C1)CN1/C(=N/C2=O)Nc2ccc(N3CCC(N4CCC(Nc5cc(F)c([C@H]6CCC(=O)NC6=O)c(F)c5)CC4)CC3)cc21` [Example 129, (R)-3-(2,6-difluoro-4-((1′-((7^1R,7^3S,E)-1^1-(2-hydroxyethyl)-2^6-methyl-3-oxo-5^2,5^3-dihydro-1^1H,5^1H-9-oxa-4-aza-5(2,1)-benzo[d]imidazola-2(2,4)-pyridina-1(4,5)-pyrazola-7(1,3)-cyclopentanacyclononaphane-5^6-yl)-[1,4′-bipiperidin]-4-yl)amino)phenyl)piperidine-2,6-dione], in assay [1], the DC50 is 1.45 nM and the Dmax turned out to be 69.3%. Besides, in assay [2], it took 16.2 nM to reach half-maximal degradation (DC50) and the Dmax was 71.9%.
